Reference: article PMC9606171, “Synthetic PPAR Agonist DTMB Alleviates Alzheimer’s Disease Pathology by Inhibition of Chronic Microglial Inflammation in 5xFAD Mice” (Neurotherapeutics, 2022)

Assays:
[1] = tested on: BV2 cells; assay: Western blot of NF-κB, NLRP3 and ASC in BV2 cells; type: cell-based, mouse
Protocol: The BV2 mouse microglia cell line was received from Professor K. H. Suk (Kyungpook National University, Korea). BV2 cells were cultured with Dulbecco’s Modified Eagle Medium (DMEM) (Hyclone, Logan, UT, USA), containing 5% fetal bovine serum (FBS, Hyclone) and 50 μg/mL of gentamicin (Lonza, Switzerland), in a 5% CO2 incubator with a humidified atmosphere at 37 °C. RAW 264.7 macrophage cells were cultured with DMEM that contains 10% FBS and 1% penicillin/streptomycin in a 5% CO2 incubator with a humidified atmosphere at 37 °C.
Cells were lysed with lysis buffer containing 50 mM Tris (pH 7.4), 140 mM NaCl, 5 mM EDTA, and a protease inhibitor tablet, followed by sonication. Lysate protein concentrations were determined using Bradford reagents (AMERSCO, MA, USA). Proteins were resolved by sodium dodecyl sulfate (SDS) polyacrylamide gel electrophoresis, transferred to nitrocellulose membranes (Pall Corporation, New York, NY, USA), and incubated with blocking buffer (5% nonfat dry milk in TBS and 0.1% Tween 20) for 30 min. Western blot analyses were performed using primary antibodies against NF-κB, NLRP3, ASC, nicastrin, pen2 (Cell Signaling Technology, Danvers, MA, USA), Aph1 (Invitrogen), amyloid C-terminal fragment (Santa Cruz Biotechnology, Dallas, TX, USA), and GAPDH (Bethyl Laboratories, Mongomery, TX, USA). Secondary antibodies of rabbit (Promega), rat, and goat (Bethyl Laboratories) were used, and detection was performed with SUPEX ECL reagent (Neuronex, Korea) and an ImageQuant LAS-4000 (GE Healthcare, MA, USA), according to the manufacturer’s instructions. The integrated blot density was quantified through ImageJ.

[2] = target: T1, recombinant human PPARα LBD (Homo sapiens, UniProt Q07869); assay: CNBr-bead pull down assay, PPARα LBD; type: binding; details: drug conjugated CNBr beads
T1 sequence (Q07869 239-466 limits assumed): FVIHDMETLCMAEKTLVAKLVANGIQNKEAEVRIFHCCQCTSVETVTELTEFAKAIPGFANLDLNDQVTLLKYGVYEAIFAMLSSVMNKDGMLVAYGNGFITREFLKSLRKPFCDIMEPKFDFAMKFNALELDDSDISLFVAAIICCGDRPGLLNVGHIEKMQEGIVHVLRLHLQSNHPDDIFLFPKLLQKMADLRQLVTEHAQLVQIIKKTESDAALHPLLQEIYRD
Protocol: (§1) CNBr Sepharose 4B beads were prepared and activated according to the instruction. 100 mg of CNBr activated Sepharose 4B beads were incubated with drugs or DMSO for 18 h at 4 °C. The drug conjugated beads reacted to his-tagged recombinant PPAR α, β/δ, and γ protein. After 24 h of incubation, we confirmed whether recombinant protein binds to the drug conjugated bead through western blotting experiment.

[3] = tested on: RAW 264.7 macrophage cells; assay: Griess assay, LPS-induced NO production; type: cell-based; details: LPS (1 µg/mL), 24 h
Protocol: Griess assay (Promega) was performed under manufacturer’s instruction to measure the concentration of nitrite after inducing the inflammatory response in RAW 264.7 macrophage cells by LPS treatment. The well-known PPAR selective agonists, such as WY14643 (PPARα), GW501516 (PPAR-β/δ), and rosiglitazone (PPARγ), were used as positive controls.

[4] = tested on: 5xFAD mice; assay: RT-qPCR of magnetically sorted adult microglia; type: in vivo; details: adult microglia sorted from 5xFAD mice
Protocol: (§2) DTMB was synthesized from Daejung Chemicals (Korea) and was dissolved in dimethyl sulfoxide (Sigma Aldrich, St. Louis, MO, USA) for cell-based experiments. To evaluate the effects of DTMB on 5xFAD mice, DTMB (10 mg/kg) and vehicle (1% carboxymethylcellulose and 10% DMSO) were orally administrated to four groups (wild-type, wild-type + DTMB, 5xFAD, and 5xFAD + DTMB) with a 6 day per week for 3 months.
To isolate the adult microglia from DTMB- or vehicle-treated 5xFAD mice brain, magnetic-activated cell sorting (MACs) system was used. Whole brain tissue was dissociated to a single cell level using gentleMACs dissociation kit (Miltenyi Biotech, Bergisch Gladbach, Germany) according to manufacturer’s instruction. To separate the immune cell fraction, 47% percoll gradient was applied to single cell mixture and centrifuged at 2,000 rpm for 10 min. Adult microglia was isolated by LS column after incubating with anti-CD11b MicroBeads (Miltenyi Biotech). Separated adult microglia were used to analyze the expression of genes related to microglia activation and inflammation by performing RT-PCR. Sample sizes were 3 mice per group.

[5] = Body and tissue weight after 3 months of treatment; type: in vivo; details: 3 months treatment; vehicle- vs DTMB-treated mice
Protocol: as §2

[6] = target: T2, recombinant human PPAR β/δ LBD (Homo sapiens, UniProt Q03181); assay: CNBr-bead pull down assay, PPAR β/δ LBD; type: binding; details: drug conjugated CNBr beads
T2 sequence (Q03181 211-439 limits assumed): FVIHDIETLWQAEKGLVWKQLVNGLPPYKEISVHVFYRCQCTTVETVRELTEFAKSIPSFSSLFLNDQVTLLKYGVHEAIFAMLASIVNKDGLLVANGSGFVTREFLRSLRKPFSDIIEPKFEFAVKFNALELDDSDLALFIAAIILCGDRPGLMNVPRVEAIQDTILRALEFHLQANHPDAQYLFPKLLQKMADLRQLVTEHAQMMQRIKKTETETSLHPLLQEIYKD
Protocol: as §1

[7] = tested on: 5xFAD mice; assay: Morris water maze in 5xFAD mice; type: in vivo; details: 10 mg/kg orally, 3 months
Protocol: as §2
A white water maze tank (120 cm diameter) was filled with water containing white non-toxic tempera paint to make the water opaque. The maze tank was divided into four quadrants, and four different visual cues were placed at each cardinal point. The water temperature was set to 20–22 °C. The Morris water maze experiment was divided into a training session, during which the mice were placed in the tank to find the platform for five consecutive days, followed by a probe test on day 6. Each mouse was trained over three trials per day and the starting quadrant was different for each trial. The duration of each training trials was 1 min and we guided the mice to the platform thereafter. In the probe test on day 6, the platform was removed, and each mouse was allowed to swim for 60 s. Target quadrant occupancy was measured automatically using a SMART v2.5 video tracking system (Panlab, TX, USA). Sample sizes were 20–25 mice per group.

binding to PPAR LBD (pull-down, western blot) ([2]; PPARα LBD): binds | body or tissue weight [5]: no changes | binding to PPAR LBD (pull-down, western blot) [6]: binds
SMILES: COc1ccc(-c2cc(=O)oc3c(C)c(OC(=O)[C@H](Cc4c[nH]c5ccccc45)NC(=O)OC(C)(C)C)ccc23)cc1 [DTMB]
protein level of ASC [1]: not changed | protein level of NF-κB [1]: decreased | protein level of NLRP3 [1]: decreased | binding to PPARα LBD compared to WY14643 (pull-down) [2]: stronger binding to PPARα LBD than WY14643 | NO production (nitrite) [3]: reduced NO production in a concentration-dependent manner | inhibition of NO production compared between DTMB and known PPAR agonists [3]: inhibited NO production greater than treatment with the known agonists of PPARα and PPARγ | levels of microglial activation markers (Iba-1, Trem2, and Cd68) [4]: markedly decreased | levels of proinflammatory cytokines (Tnf-α, Il-6, and Il-1β) [4]: markedly decreased | target quadrant occupancy (probe test, day 6) [7]: markedly improved
